Laboratory results published in patent US9353150B2, “Substituted pyrazino[1′,2′:1 ,5]pyrrolo[2,3-b]-indole-1,4-diones for cancer treatment” (Massachusetts Institute of Technology, priority 2012, dated 2016).
Entries after “also recorded” stand apart in the source; their conditions may differ. Like-named read-outs stand apart in the source and are kept apart here.

Tests used:
[1] = system: HeLa (cervical carcinoma); assay: 72-hour IC50 determination for adherent cells using sulforhodamine B (SRB); format: cell-based, human; conditions: 72-hour exposure, SRB, error is standard deviation of the mean, n ≧ 3
Description: (§1) Certain synthesized compounds were screened for their ability to induce death in two human cancer cell lines: U-937 (leukemic monocyte lymphoma) and HeLa (cervical cancer).
(§2) Cells were grown in media supplemented with fetal bovine serum (FBS) and antibiotics ([…]). Specifically, experiments were performed using the following cell lines and media compositions: U-937, HeLa, H460, and 786-O (RPMI-1640+10% FBS), and MCF7 (EMEM+10% FBS). Cells were incubated at 37° C. in a 5% CO2, 95% humidity atmosphere.
(§3) Adherent cells (HeLa, H460, 786-O, and MCF7) were added into 96-well plates (5,000 cells/well for HeLa cell line; 2,000 cells/well for H460, 786-O, and MCF7 cell lines) in 100 μL media and were allowed to adhere for 2-3 hours. Compounds were solubilized in DMSO as 100× stocks, added directly to the cells (100 μL final volume), and tested over a range of concentrations in triplicate (1% DMSO final) on a half-log scale. Concentrations tested ranged from […] to 10 μM, depending on the potency of the compound. DMSO and cell-free wells served as the live and dead control, respectively. After 72 hours of continuous exposure, the plates were evaluated using the SRB colorimetric assay as described previously (Vichai, V.; Kirtikara, K. Nature Prot. 2006, 1, 1112). Briefly, media was removed from the plate, and cells were fixed by the addition of 100 μL cold 10% trichloroacetic acid in water. After incubating at 4° C. for an hour, the plates were washed in water and allowed to dry. Sulforhodamine B was added as a 0.057% solution in 1% acetic acid (100 μL), and the plates were incubated at room temperature for 30 minutes, washed in 1% acetic acid, and allowed to dry. The dye was solubilized by adding 10 mM Tris base solution (pH 10.5, 200 μL) and incubating at room temperature for 30 minutes. Plates were read at λ=510 nm. IC50 values were determined from three or more independent experiments using TableCurve (San Jose, Calif.).

human cancer cell lines = assay: Anticancer activity in human cancer cell lines, not tied to one cell line; format: cell-based; conditions: human cancer cell lines, 72-hour exposure
Description: as §1
(§4) Certain provided compounds were tested in culture against a panel of three supplementary human cancer cell lines representing three additional tumor histologies (H460, lung carcinoma; 786-O, renal carcinoma; MCF-7, breast carcinoma). As shown in Table E1-2, the ETPs retain their potency across the cell lines. In some embodiments, a provided compound is active in all cell lines. In some embodiments, a provide compound can be used to selectively target certain cells and/or cancers. […] Without the intention to be limited, Applicant notes that certain cell lines could be more sensitive to provided compounds; for example, U-937 and HeLa are slightly more sensitive to the ETPs than the other three cell lines.
as §3
(§5) In a 96-well plate, compounds were pre-added as DMSO stocks in triplicate to achieve a final concentration of 1%. DMSO and cell-free wells served as the live and dead control, respectively. U-937 (5,000 cells/well) cells were distributed in 100 μL media to the compound-containing plate. After 72 hours, cell viability was assessed by adding 20 μL of a PMS/MTS solution (Cory, A. H.; Owen, T. C.; Barltrop, J. A.; Cory, J. G. Cancer Commun. 1991, 3, 207) to each well, allowing the dye to develop at 37° C. until the live control had processed MTS, and reading the absorbance at λ=490 nm. IC50 values were determined from three or more independent experiments using TableCurve (San Jose, Calif.).

H460 (lung carcinoma) = assay: 72-hour IC50 determination for adherent cells using sulforhodamine B (SRB); format: cell-based, human; conditions: error is standard deviation of the mean, n ≧ 3, read-out: H460, 72-hour IC50 (Table E1-2)
Description: as §4, §2, §3

786-O (renal carcinoma) = assay: as above; format: cell-based, human; conditions: error is standard deviation of the mean, n ≧ 3, read-out: 786-O, 72-hour IC50 (Table E1-2)
Description: as §4, §2, §3

MCF-7 (breast carcinoma) = assay: as above; format: cell-based, human; conditions: error is standard deviation of the mean, n ≧ 3, read-out: MCF-7, 72-hour IC50 (Table E1-2)
Description: as §4, §2, §3

[2] = system: U-937 (hystiocytic lymphoma); assay: 72-hour IC50 determination for non-adherent cells using MTS; format: cell-based, human; conditions: 72-hour exposure, MTS, error is standard deviation of the mean, n ≧ 3
Description: as §1, §2, §5

[3] = Homo sapiens, HeLa, read-out: HeLa, 72-hour IC50 (Table E1-1)
[4] = Homo sapiens, HeLa, read-out: HeLa, 72-hour IC50 (Table E1-2)
[5] = Homo sapiens, NCI-H460, 72-hour exposure
[6] = Homo sapiens, 786-0, 72-hour exposure
[7] = Homo sapiens, MCF7, 72-hour exposure
[8] = Homo sapiens, U-937, read-out: U-937, 72-hour IC50 (Table E1-1)
[9] = Homo sapiens, U-937, read-out: U-937, 72-hour IC50 (Table E1-2)
[10] = read-out: HeLa, 72-hour IC50 (Table E1-1)
[11] = read-out: HeLa, 72-hour IC50 (Table E1-2)
[12] = read-out: U-937, 72-hour IC50 (Table E1-1)
[13] = read-out: U-937, 72-hour IC50 (Table E1-2)

With CC(=O)S[C@H]1C(=O)N2[C@H]3N(S(=O)(=O)c4ccccc4)c4ccccc4[C@@]3(c3c[nH]c4ccccc34)C[C@]2(SC(C)=O)C(=O)N1C [Compound 44, C3-(Indol-3′-yl)bisthloaeetate] the IC50 [1, 3] was 17.3 ± 4.5 nM, the IC50 [1, 4] was 17.3 ± 4.5 nM and the “anticancer activity, in words” value (human cancer cell lines) was “competent anticancer agents”. The IC50 (H460 (lung carcinoma); [5]) was 149 ± 59 nM, the IC50 (786-O (renal carcinoma); [6]) was 151 ± 7 nM and the IC50 (MCF-7 (breast carcinoma); [7]) was 103 ± 37 nM. The IC50 [2, 8] was 4.1 ± 0.5 nM and the IC50 [2, 9] was 4.1 ± 0.5 nM.

CSS[C@H]1C(=O)N2[C@H]3N(S(=O)(=O)c4ccccc4)c4ccccc4[C@@]3(c3cn(SC)c4ccccc34)C[C@]2(SSC)C(=O)N1C [Compound 45, C3-(Indol-3′-yl) N-(thiomethyl)bis(methyldisulfane)] was tested, and the IC50 [1, 3] was 13.7 ± 2.3 nM, the IC50 [1, 4] was 13.7 ± 2.3 nM and the “anticancer activity, in words” value (human cancer cell lines) was “competent anticancer agents”. For the same compound, the IC50 (H460 (lung carcinoma); [5]) was 252 ± 37 nM, the IC50 (786-O (renal carcinoma); [6]) was 376 ± 120 nM and the IC50 (MCF-7 (breast carcinoma); [7]) was 373 ± 75 nM. It also gave an IC50 [2, 8] of 14.5 ± 9.1 nM and an IC50 [2, 9] of 14.5 ± 9.1 nM.

CC(=O)OC[C@]12SSS[C@@]3(C[C@]4([C@]56C[C@@]78SSS[C@@](COC(C)=O)(C(=O)N7[C@H]5N(C(=O)C(F)(F)F)c5ccccc56)N(C)C8=O)c5ccccc5N(C(=O)C(F)(F)F)[C@@H]4N3C1=O)C(=O)N2C [Compound 17] showed an IC50 [1, 10] of 28.1 ± 2.2 nM, an IC50 [1, 11] of 28.1 ± 2.2 nM and an IC50 (H460 (lung carcinoma); 72-hour exposure) of 179 ± 88 nM. For the same compound, the IC50 (786-O (renal carcinoma); 72-hour exposure) was 189 ± 26 nM, the IC50 (MCF-7 (breast carcinoma); 72-hour exposure) was > 333 nM and the IC50 [2, 12] was 8.9 ± 2.3 nM. The IC50 [2, 13] was 8.9 ± 2.3 nM.

CN1C(=O)C23CC4(C56CC78SC(=S)S[C@](C)(C(=O)N7[C@H]5N(S(=O)(=O)c5ccccc5)c5ccccc56)N(C)C8=O)c5ccccc5N(S(=O)(=O)c5ccccc5)[C@@H]4N2C(=O)[C@@]1(C)SC(=S)S3 (some centres unmarked) [Compound 18, Dimeric bisdithiepanethione] was tested, and the IC50 [1, 3] was 1.1 ± 0.8 nM, the IC50 [1, 4] was 1.1 ± 0.8 nM and the “anticancer activity, in words” value (human cancer cell lines) was “competent anticancer agents; also recorded: active across the board”. For the same compound, the IC50 (H460 (lung carcinoma); [5]) was 18.5 ± 2.7 nM, the IC50 (786-O (renal carcinoma); [6]) was 14.9 ± 4.4 nM and the IC50 (MCF-7 (breast carcinoma); [7]) was 10.7 ± 8.1 nM. It also gave an IC50 [2, 8] of 2.9 ± 2.1 nM and an IC50 [2, 9] of 2.9 ± 2.1 nM.

Compound CC(=O)OC[C@]12SSS[C@@]3(C[C@]4([C@]56C[C@@]78SSS[C@@](COC(C)=O)(C(=O)N7[C@H]5Nc5ccccc56)N(C)C8=O)c5ccccc5N[C@@H]4N3C1=O)C(=O)N2C [Compound 16] has an IC50 [1, 10] of 70 ± 20 nM, an IC50 [1, 11] of 70 ± 20 nM and an IC50 (H460 (lung carcinoma); 72-hour exposure) of 187 ± 79 nM. The IC50 (786-O (renal carcinoma); 72-hour exposure) was 204 ± 40 nM, the IC50 (MCF-7 (breast carcinoma); 72-hour exposure) was 263 ± 98 nM and the IC50 [2, 12] was 9.7 ± 2.1 nM. It also gave an IC50 [2, 13] of 9.7 ± 2.1 nM.

CN1C(=O)C23CC4(c5c[nH]c6ccccc56)c5ccccc5N(S(=O)(=O)c5ccccc5)[C@@H]4N2C(=O)[C@H]1SCS3 (some centres unmarked) [Compound 38, C3-(Indol-3′-yl)dithioacetal] was tested, and the IC50 [1, 3] was 465 ± 37 nM, the “anticancer activity, in words” value (human cancer cell lines) was “active” and the IC50 [2, 8] was 82 ± 28 nM.

With CSS[C@H]1C(=O)N2[C@H]3N(S(=O)(=O)c4ccccc4)c4ccccc4[C@@]3(c3c[nH]c4ccccc34)C[C@]2(SSC)C(=O)N1C [Compound 46, C3-(Indol-3′-yl)bis(methyldlsulfane)] the IC50 [1, 3] was 36.6 ± 3.9 nM, the “anticancer activity, in words” value (human cancer cell lines) was “competent anticancer agents” and the IC50 [2, 8] was 20.4 ± 9 nM.
